For data set [1], the system named is HL-60 cells. As to the kind of experiment: ATP determination in HL-60 cells. The note with it: HL-60 control about five μmoles per 10^9 cells. The data set is classed as cell-based, human. The protocol:
Determination of ATP was performed using a kit purchased from Sigma Diagnostics (St. Louis, Mo.) with slight modifications. 1.0 ml of 12% trichloroacetic acid (TCA) and 1.0 ml of prepared cell suspension (1×10^7 cells/ml) were combined, vortexed and placed on ice for five minutes. Tubes were then centrifuged (Jouann, at 2000×g for 8 minutes) to obtain a clear supernatant. The following reagents were then added into vials containing 0.3 mg NADH: 1.0 ml phosphoglyceraldehyde buffered solution, 1.5 ml water, and 0.15 ml cell supernatant. Samples were distributed into two tubes. One tube was used to obtain an initial spectrophotometric absorbance at 340 nm. Fifteen μl of GAPD/PGK enzyme mixture were added to the second tube and read after ten minutes. Changes in absorbance were calculated and results were expressed as μmol of ATP per 1×10^9 cells.

In data set [2] the test system is weanling Swiss ICR mice. Description: In vivo loading with ribose, planned immune response and pathogen challenge studies. Details: species or system mouse. To be noted: expected result. The source says: For the in vivo studies, weanling Swiss ICR mice (three weeks old) were fed a fully nutritious, casein-based diet (AIN 93G).
This pilate study will be followed by a broader study with ten animals per groups. Popliteal lymphoproliferation, delayed-type hypersensitivity (DTH) and thymic and splenic lymphocyte proliferation will be tested. To determine popliteal lymphoproliferation, the popliteal node will be excised and weighed after antigen injection into the hind-leg footpad. DTH can be assessed by measuring ear swelling after sensitization and stimulation with the prop antigen dinitrofluorobenzene. Thymic and splenic proliferation will be determined from cells isolated from the thymus and spleen and pulsed with tritiated thymidine. These four measures are all T-cell responses.
Another group of animals will be fed as above. […] T-cell numbers, proliferation and migration, B-cell numbers, NK cell numbers and migration, neutrophil numbers, migration and oxidative burst will be determined. […] Cells will be quantitated by flow cytometry, oxidative burst will be determined spectrophotometrically and proliferation by incorporation of tritiated thymidine. Cell migration will be determined by flow cytometry as the percentage of cells. In addition, the activity of myeloperoxidase, a degradative enzyme specific to neutrophils, can be measured in lung tissue to determine this cell's migration. […]

Data set [3] has as its system HL-60 cells. Description: Cellular proliferation of HL-60 cells (hemocytometer count). The class given is cell-based, human. The note with it: for reduction in cell growth compared to control HL-60 cells: 96-hour incubation; for Cell Growth (10^5 cells/ml): Table 1, 96 h incubation, initial 2.5×10^5 cells/ml, RA 1.0 μmol/L, ribose 10 mmol/L; for change in cell number over the 96-hour incubation period: initial cell density 2.5×10^5. The source says:
(§1) For the in vitro studies, HL-60 cells (American Type Culture Collection, Manassas, Va.), an immortal human lymphocyte cell line, at approximately passage twenty were maintained between 2.0×10^5 cells/ml in RPMI 1640 medium containing HEPES buffer (Cellgro, Mediatech Inc., Herdon, Va.), 2 mmol/L L-glutamine (Cellgro), 1% antimycotic (Cellgro), 10% heat treated fetal bovine serum (FBS: GibcoBRL; Life Technologies, Baltimore, Md.), and 0.1% gentamicin (GibcoBRL).
(§2) Experimental flasks were initiated at a concentration of 2.5×10^5 cells/ml. Differentiation of HL-60 cells was induced using all-trans retinoic acid (RA) prepared in 95% ethanol. RA was added to flasks at a concentration of 1.0 μmol/L such that the ethanol concentration added to the flask was less than 0.1%. D-Ribose preparations were made by dissolving powdered ribose (Bioenergy, Minneapolis, Minn.) in RPMI medium followed by sterile filtration.
(§3) The specificity of ribose, time and dose response was examined. The doses of ribose were 1, 5, 10, 25 and 50 mmol/L. In experiments in which one concentration of ribose was used, 10 mmol/L was the dose chosen. The effect of timing of the dose was explored by adding ribose at various times after the addition of the retinoic acid. Specificity was examined by substituting glucose, to eliminate the nonspecific effects of ribose as a substrate for glycolysis or gluconeogenesis, or change in osmolarity.
(§4) Following ninety-six hours of incubated (or as specified), cells were harvested, counted by hemocytometer and viability assessed using trypan dye exclusion. For growth and viability determinations, cells were counted three times within one experiment. Results shown were from at least three experiments. Cells were washed twice with phosphate buffered salt solution (PBS) and brought to a concentration of 2.0×10^7 cells/ml PBS.

The test system of data set [4] is HL-60 cells. Description: Cell surface markers of maturity (CD11b, CD117) on HL-60 cells. The class given is cell-based, human. To be noted: for expression of cell surface marker reactive with CD11b antibody: FIG. 1. Here is the method:
Cell samples for the detection of cell surface molecules were prepared for flow cytometry in 12×17 mm capped conical tubes. To each tube, 30 μl of PBS containing 2% FBS was added. To each of triplicate tubes, a phycoerythrin (PE) labeled antibody (PharMingen, San Diego, Calif.) was added: 20 μl of CD1 lb, 20 μl of CD117, or 20 μl of isotype control (Mouse IgG1,κ). Fifty microliters of prepared cell suspension were added to each tube, followed by gentle mixing. Tubes were placed on ice for forty-five minutes after which 2 ml of cold PBS containing 2% FBS were added to each tube. Tubes were centrifuged (Jouann, at 300×g for 10 minutes) at approximately 5° C. and supernatant removed. One ml of cold 0.5% paraformaldehyde solution was added to the pellet and tubes were vortexed immediately. Prior to analysis, fixed cells were stored in the dark at approximately 4° C. for a period no longer than one week. Samples were analyzed on FACScan. Data were analyzed using WinMDI Software (Scripps Institute, build 1301-19-200, San Diego, Calif.).
Differentiation is accompanied by changes in the surface markers CD117 and CD11b. CD117 is a tyrosine kinase receptor that is expressed in high quantities on undifferentiated cells, while CD11b is a cell adhesion molecule expressed in high quantities on differentiated cells. After harvest, aliquots of the ribose and glucose control cells were allowed to differentiate with retinoic acid as above. An ELISA assay was set up with antibodies against CD117 or CD11b.

For data set [5] the following is noted: healthy males; U.S. Pat. No. 6,159,942; cited from earlier work.
Data set [6] concerns various cell cultures. To be noted: 12.5 to 50 mM; Marini et al 1985; cited from earlier work.
The conditions of data set [7]: as much as 20 gm; cited from earlier work.
Data set [8] deals with spleen cells. Description: PHA-stimulated spleen cell proliferation (tritiated thymidine). The data set is classed as cell-based, mouse. Here is the method:
(§5) Mice are the species of choice for studies of the immune response because of the numerous nutritional and interventional studies that have been performed on mice. Details of its immune response are well studied and the inbred lines used eliminate any genetic differences. Spleens and thymus were removed from weanling Swiss ICR mice and cell suspensions prepared. The spleen and thymus cells were plated in a 96-well plate and various levels of ribose added to each well in triplicate. Phytohaemagglutinin (PHA), a T-cell stimulator, was added and the cells incubated for 48 hours. Tritiated Thymidine was then added, the cells harvested 24 hours later, and radioactivity incorporated was determined by liquid scintillation counting.

Data set [9] has as its system thymus cells. As to the kind of experiment: PHA-stimulated thymus cell proliferation (tritiated thymidine). The data set is classed as cell-based, mouse. Here is the method: as §5
In data set [10] the test system is HL-60 cells. As to the kind of experiment: Viability of HL-60 cells (trypan dye exclusion). The data set is classed as cell-based, human. The note with it: summary of Table 1.
Source text: as §1, §2, §3, §4

The nature of data set [11]: Viability of HL-60 cells (trypan dye exclusion). The class given is cell-based, human. To be noted: human, HL-60 cells; for viability at 96 h: Table 1, 96 h incubation, RA 1.0 μmol/L, ribose 10 mmol/L.
Source text: as §1, §2, §3, §4

The test system of data set [12] is HL-60 cells. Description: Respiratory burst (superoxide anion, ferricytochrome c reduction, PMA stimulated). To be noted: for increase in rate of superoxide generation compared to HL-60 control cells: FIG. 3. The data set is classed as cell-based, human. The protocol:
Specific cells undergo an increase in oxygen uptake when presented with appropriate stimuli, such as invading microorganisms or phorbol ester. The cells utilize this oxygen to produce a series of free radicals that kill the invading microorganism. Production of free radicals occurs via an enzyme called NADPH oxidase. Free radical production is measured spectrophotometrically by a change in color of ferricytochrome c.
The ability of cells to produce superoxide anion was measured by the reduction of ferricytochrome c via a microtiter plate (Levy et al (1990)). Fifty microliters of cells (1×10^7 cells/ml) previously incubated with retinoic acid, ribose or glucose were plated in triplicate wells of a microtiter plate. Each well contained 10 μl of 1.5 mol/L ferricytochrome c substrate and 100 μl of DPBD containing 1 mmol/L glucose. Cells were stimulated to produce superoxide anion by addition of 10 μl of 1.6 μmol/L phorbol 12-myristate 13-acetate (PMA). A kinetic reading on dual wavelengths of 540-490 nM was taken using a Molecular Devices microtiter plate reader (UVMax, Menlo Park, Calif.). Change in absorbance was measured over ten minutes. In order to ensure that reduction of ferricytochrome was the result of superoxide anion, experimental samples were incubated with 10 μl of bovine erythrocyte superoxide dismutase (7500 units/ml). […] Respiratory burst was expressed as the change in optical density/10^6 cells.

Setting [13] is: 10 mM ribose, cells differentiated with retinoic acid.

Turning to `O=C[C@H](O)[C@H](O)[C@H](O)CO` [D-Ribose], the “change in ATP concentration versus HL-60 control” value in data set [1] is recorded as “slightly increased”. Besides, the “immune response parameters after diet supplementation and pathogen challenge” value in [2] is listed as “benefit the immune response”. Besides, in [3], the “reduction in cell growth compared to control HL-60 cells” value came out at 30%, the “Cell Growth (10^5 cells/ml)” value was 6.68 +/− 1.29 10^5 cells/ml and the “change in cell number over the 96-hour incubation period” value is on record as “nearly tripled in number”. Moreover, in data set [4] (setting [13]), the “increase in CD11b” value was “threefold increase” and the “reduction in CD117” value is reported as 30%. Further, the “expression of cell surface marker reactive with CD11b antibody” value in data set [4] (ribose added to RA) is on record as “increased further”. Also, in data set [4] (FIG. 2, ribose added to RA), the “immature cell surface marker recognized by CD117 antibody” value is reported as “reduced”. Besides, in data set [5], the “energy level (skeletal muscle ATP, power output)” value is “enhances the energy level”. Besides, the “effect on incorporation of tritiated thymidine / metabolic processes” value in [6] was “deeply derange metabolic processes”. Besides, the tolerability entry in [7] is recorded as “well tolerated”. Also, in data set [8] (low levels of ribose), the spleen cell proliferation entry is on record as “slight, but non-significant stimulation”. For the same compound, in data set [8] (ribose above 5 mM), the spleen cell proliferation result was “tended to inhibit proliferation”. Moreover, the thymus cell proliferation result in data set [9] (low levels of ribose) is “slight, but non-significant stimulation”. Further, the thymus cell proliferation result in [9] (ribose above 5 mM) is on record as “tended to inhibit proliferation”. For the same compound, in data set [10], the “change in viability versus control” value is recorded as “slight reductions in viability”. This compound also showed a viability at 96 h in data set [11] of 86.3%. The “increase in rate of superoxide generation compared to HL-60 control cells” value in data set [12] is “no significant increase”.

In the case of `CC1=C(/C=C/C(C)=C/C=C/C(C)=C/C(=O)O)C(C)(C)CCC1` [RA, all-trans retinoic acid], in data set [3], the “reduction in cell growth compared to control HL-60 cells” value was found to be 30%, the “Cell Growth (10^5 cells/ml)” value was 7.01 +/− 2.14 10^5 cells/ml and the “change in cell number over the 96-hour incubation period” value is reported as “nearly tripled in number”. In [3] (Table 2, mean ± SD, n = 5), the Growth (cell/ml) came to 727000 ± 102000 cells/mL. The “expression of cell surface marker reactive with CD11b antibody” value in data set [4] (ribose added to RA) is “high level of expression”. Moreover, in [4] (Table 2, immature cell marker, mean ± SD, n = 5), the “CD117 (%)” value is 33.4 ± 9.5^A %. Also, the “CD11b (%)” value in [4] (Table 2, mature cell marker, mean ± SD, n = 5) was 35.7 ± 7.5^B %. Moreover, the “change in viability versus control” value in [10] is “slight reductions in viability”. This compound gave a viability at 96 h in data set [11] of 84.5%. This compound displayed a viability at 1 μmol/L in data set [11] (Table 2, mean ± SD, n = 5) of 82.6 ± 3.3%. The “increase in rate of superoxide generation compared to HL-60 control cells” value in data set [12] is given as 5.5 fold. Besides, the “Respiratory Burst (% of RA control)” value in data set [12] (Table 2, mean ± SD, n = 5) is 100^B % of RA control.

Turning to `[2H]C(=O)C[C@H](O)[C@H](O)CO` [deoxy-D-Ribose, reference compound], the “effect on incorporation of tritiated thymidine / metabolic processes” value in data set [6] is “deeply derange metabolic processes”.

Usually viability stands for a per cent measure of how many cells are alive, often set against a control.

Source of the values: patent US6663859B2, “Compositions for enhancing the immune response” (Bioenergy, Inc., priority 2000, dated 2003).
